Experimental data published in ChEMBL document CHEMBL1139429, “2-Thiazolylimino/heteroarylimino-5-arylidene-4-thiazolidinones as new agents with SHP-2 inhibitory action” (J Med Chem, 2008).

The molecules below were run against T1, Tyrosine-protein phosphatase non-receptor type 11 (Homo sapiens, UniProt Q06124) (assay: Inhibition of human recombinant GST-fused SHP2 using p-nitrophenyl phosphate as substrate).
T1 sequence (Q06124 whole entry): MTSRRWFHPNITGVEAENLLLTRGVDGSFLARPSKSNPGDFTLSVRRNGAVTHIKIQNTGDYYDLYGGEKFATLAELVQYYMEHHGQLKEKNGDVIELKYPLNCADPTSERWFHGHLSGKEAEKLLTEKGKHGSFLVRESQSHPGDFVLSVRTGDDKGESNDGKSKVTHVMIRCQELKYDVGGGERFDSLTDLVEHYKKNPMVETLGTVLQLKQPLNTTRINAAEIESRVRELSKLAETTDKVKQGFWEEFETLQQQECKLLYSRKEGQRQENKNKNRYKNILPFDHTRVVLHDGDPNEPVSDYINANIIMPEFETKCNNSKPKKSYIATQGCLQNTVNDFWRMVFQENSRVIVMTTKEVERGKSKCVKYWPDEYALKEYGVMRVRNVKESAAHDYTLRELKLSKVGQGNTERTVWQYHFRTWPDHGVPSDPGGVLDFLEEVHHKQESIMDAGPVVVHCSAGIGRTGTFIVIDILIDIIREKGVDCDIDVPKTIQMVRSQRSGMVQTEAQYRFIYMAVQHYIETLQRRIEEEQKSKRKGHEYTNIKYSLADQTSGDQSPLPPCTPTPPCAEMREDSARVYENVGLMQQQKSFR

SMILES | Ki [µM]
COc1ccc(/C=C2/S/C(=N/c3nccs3)NC2=O)cc1 | 11.7
O=C1N/C(=N\c2nccs2)S/C1=C/c1cccc(Cl)c1 | 1090
O=C1N/C(=N\c2nccs2)S/C1=C/c1ccc([N+](=O)[O-])cc1 | 474
COc1ccc(/C=C2/S/C(=N\c3nsc4ccccc34)NC2=O)cc1 | 22.8
COc1cc(/C=C2/S/C(=N/c3nc(C45CC6CC(CC(C6)C4)C5)cs3)NC2=O)ccc1O | 12.3
COc1cc(/C=C2/S/C(=N/c3nc4ccccc4s3)NC2=O)cc(OC)c1O | 18.1
COc1cc(/C=C2/S/C(=N/c3nc(-c4ccccc4)cs3)NC2=O)ccc1O | 103
O=C1N/C(=N\c2nc3ccccc3s2)S/C1=C/c1cccc([N+](=O)[O-])c1 | 28.7
COc1cc(/C=C2/S/C(=N\c3nsc4ccccc34)NC2=O)ccc1O | 90.8
COc1cc(/C=C2/S/C(=N/c3nc4ccc([N+](=O)[O-])cc4s3)NC2=O)cc(OC)c1O | 12.9
